Measurements: patent US20090209570A1 (priority 2001, published 2009)
pKi: −log10 of the molar value. Counter-ions that a name gives are not always drawn. Like-named read-outs stand apart in the source and are kept apart here.

Legend:
μ-opioid receptors = target: T1, μ-opioid receptors (Rattus norvegicus, UniProt P33535); assay: Opioid receptor binding studies with [3H]DAMGO on rat's brain homogenisates
T1 construct: from tissue; host or cells: rat brain homogenate

anaesthetised rats = settings: rat, in vivo; for respiratory depression at analgesic doses (in words): sc
rats = assay: Analgesia test (rat tail flick test); type: in vivo; settings: for Analgesic effect (in percent) after 10 minutes / Analgesic effect (in percent) after 20 minutes / Analgesic effect (in percent) after 30 minutes / Analgesic effect (in percent) after 60 minutes / Analgesic effect (in percent) after 120 minutes / Analgesic effect (in percent) after 180 minutes: 3 0.5 μg/rat, 4 0.25 μg/rat, rats 120 g; for Analgesic effect (in percent) after 10 minutes / Analgesic effect (in percent) after 20 minutes / Analgesic effect (in percent) after 30 minutes / Analgesic effect (in percent) after 60 minutes / Analgesic effect (in percent) after 120 minutes: morphine 50 μg/rat; for sc/icv: ratio of tail flick ED50 sc to icv
Description: A test on rats was applied (“rat tail flick test”). This test was carried out as previously described (Zs. Fürst et al., Eur. J. Pharmacol. 1993, Vol. 236, pp. 209-215).

in vivo = settings: rat
[1] = system: carrageen-induced hyperalgesia on the right hind paw of rats; assay: Randall-Selitto test (hind-paw withdrawal latency, mechanical stimulation); type: in vivo, rat
Description: The Randall-Selitto Test (L. O. Randall and J. J. Selitto, Arch. Int. Pharmacodyn. 1957, Vol. 111, pp. 409-419) was applied to study the analgesic effect on carrageen-induced hyperalgesia on the right hind paw of rats. In this way the “hind-paw withdrawal latency” (HWL; latency period for withdrawing the right hind paw) with mechanical stimulation (e.g. I. Bileviciute-Ljungar and M. Spetea, Br. J. Pharmcol. 2001, Vol. 132, pp. 252-258) is measured.

[2] = system: rats with ligations around the ischias nerve; assay: Von Frey test (mechanical allodynia); type: in vivo, rat
Description: (§1) The tests involve models to test the effect of a substance on neuropathic pain.
(§2) For both tests ligations were applied around the ischias nerve (G. J. Bennett and Y. K. Xie, Pain 1988, Vol. 33, 87-107).
A slight pressure (2 to 60 g) was exerted on the skin of the hind paw of the rats (200-250 g) using Von Frey hairs and the latency period of withdrawal of the hind paw was studied at various time intervals (5, 15, 30 and 60 minutes after the application of the substance). The substance to be investigated was applied via intraplant (ipl).

[3] = system: rats with ligations around the ischias nerve; assay: Cold water allodynia test (thermal allodynia); type: in vivo, rat
Description: as §1, §2
Thermal stimulation (cold water) was used to initiate withdrawal of the hind paw of the rats (200-300 g). After 5, 15 and 30 min (after application of the substance) the latency period of the withdrawal of the hind paw was studied (J. C. Hunter et al., Eur. J. Pharmacol., 1997, Vol. 324, 153-160). The substances to be investigated were applied via intraplant (ipl).

[4] = central, rat tail flick test, intracerebroventricular application, read-out: ED50 (μg/kg, icv)
[5] = sc, rat tail flick test, subcutaneous application, read-out: ED50 (μg/kg, sc)
[6] = 20 μg/kg, subcutaneous application
[7] = 100 μg/rat after subcutaneous application
[8] = peripherally acting opioid antagonist

T1 sequence (P33535 whole entry): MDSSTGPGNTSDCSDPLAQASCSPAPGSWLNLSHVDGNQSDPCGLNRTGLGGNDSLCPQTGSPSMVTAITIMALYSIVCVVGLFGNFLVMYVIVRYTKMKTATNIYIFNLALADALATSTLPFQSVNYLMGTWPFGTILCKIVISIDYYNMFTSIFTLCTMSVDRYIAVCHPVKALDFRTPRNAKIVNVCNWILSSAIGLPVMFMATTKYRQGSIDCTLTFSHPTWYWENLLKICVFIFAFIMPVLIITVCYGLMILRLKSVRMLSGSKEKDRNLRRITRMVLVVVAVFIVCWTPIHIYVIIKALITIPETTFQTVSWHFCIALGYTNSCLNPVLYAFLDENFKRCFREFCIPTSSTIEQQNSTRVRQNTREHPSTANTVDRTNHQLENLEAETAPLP

SMILES: CO[C@@]12CC[C@@H](N)[C@@H]3Oc4c(O)ccc5c4[C@@]31CCN(C)[C@@H]2C5
- melting point: > 235 °C

SMILES: CCOC(=O)CN[C@@H]1CC[C@@]2(OC)[C@H]3Cc4ccc(O)c5c4[C@@]2(CCN3C)[C@H]1O5 (as salt: hydrochloride) [Compound 23, (4,5α-epoxy-3-hydroxy-14β-methoxy-17-methylmorphinan-6β-ylamino)-acetic acid-ethylester dihydrochloride]
- melting point: > 200 °C

SMILES: CO[C@@]12CCC(NCC(=O)OC(C)(C)C)[C@@H]3Oc4c(O)ccc5c4[C@@]31CCN(C)C2C5 (stereo in doubt) [Compound 2, (4,5α-epoxy-3-hydroxy-14β-methoxy-17-methylmorphinan-6β-ylamino)-acetic acid-tert.-butylester]
- pKi (μ-opioid receptors): 8.89

SMILES: CO[C@@]12CC[C@H](NCC(=O)OC(C)(C)C)[C@@H]3Oc4c(O)ccc5c4[C@@]31CCN(C)[C@@H]2C5 [Compound 1, (4,5α-epoxy-3-hydroxy-14β-methoxy-17-methylmorphinan-6α-ylamino)-acetic acid-tert.-butylester]
- pKi (μ-opioid receptors): 9.32

SMILES: CO[C@@]12CC[C@H](NCC(=O)O)[C@@H]3Oc4c(O)ccc5c4[C@@]31CCN(C)C2C5 [Compound 3, (4,5α-epoxy-3-hydroxy-14β-methoxy-17-methylmorphinan-6α-ylamino)-acetic acid sesqui(trifluoroacetate)]
- respiratory depression at analgesic doses (in words) (anaesthetised rats): not able to initiate a respiratory depression
- ED50 (rats; [4]): 0.49 µg/kg
- passage of the blood-brain barrier (concluded from sc/icv figures) (rats; conclusion from tail flick sc/icv ratio): only overcome the blood-brain barrier in a very restricted manner
- Analgesic effect (in percent) after 10 minutes (rats; icv): 46%
- Analgesic effect (in percent) after 20 minutes (rats; icv): 62%
- Analgesic effect (in percent) after 30 minutes (rats; icv): 59%
- Analgesic effect (in percent) after 60 minutes (rats; icv): 100%
- Analgesic effect (in percent) after 120 minutes (rats; icv): 100%
- Analgesic effect (in percent) after 180 minutes (rats; icv): 90%
- analgesic activity (in words) (rats; rat tail flick test): very high analgesic activity
- sc/icv (rats): 176
- ED50 (rats; [5]): 86 µg/kg
- ED50 (in vivo): 0.00083 mg/kg
- ED50 (in vivo; sc): 1 mg/kg

SMILES: CO[C@@]12CC[C@@H](NCC(=O)O)[C@@H]3Oc4c(O)ccc5c4[C@@]31CCN(C)C2C5 [Compound 4, (4,5α-epoxy-3-hydroxy-14β-methoxy-17-methylmorphinan-6β-ylamino)-acetic acid sesqui(trifluoroacetate)]
- analgesic activity (rise in HWL of at least 100% taken as significant) [1, 6]: significant analgesic activity
- duration of analgesic effect [1, 6]: approx. 14 hours
- passage of the blood-brain barrier (concluded from naloxone methiodide antagonism) ([1]; conclusion from the Randall-Selitto test): cannot overcome the blood-brain barrier
- anti-allodynic activity (rise of at least 100% in latency of hind paw withdrawal taken as significant) [2, 7]: significant anti-allodynic activity
- anti-allodynic effect after naloxone methiodide (ipl) [2, 8]: completely neutralise
- respiratory depression at analgesic doses (in words) (anaesthetised rats): not able to initiate a respiratory depression
- ED50 (rats; [4]): 0.42 µg/kg
- Analgesic effect (in percent) after 10 minutes (rats; icv): 61%
- Analgesic effect (in percent) after 20 minutes (rats; icv): 74%
- Analgesic effect (in percent) after 30 minutes (rats; icv): 76%
- Analgesic effect (in percent) after 60 minutes (rats; icv): 100%
- Analgesic effect (in percent) after 120 minutes (rats; icv): 100%
- Analgesic effect (in percent) after 180 minutes (rats; icv): 90%
- analgesic activity (in words) (rats; rat tail flick test): very high analgesic activity
- times as active as morphine after intracerebroventricular application (icv) (rats; rat tail flick test, icv, relative to morphine): 238 times
- times as active as morphine after subcutaneous application (sc) (rats; rat tail flick test, sc, relative to morphine): 68 times
- sc/icv (rats): 67
- ED50 (rats; [5]): 28 µg/kg
- ED50 (in vivo): 0.00042 mg/kg
- ED50 (in vivo; sc): 0.5 mg/kg
- anti-allodynic activity (rise of at least 100% in latency of hind paw withdrawal taken as significant) [3, 7]: significant anti-allodynic activity
- anti-allodynic effect after naloxone methiodide (ipl) [3, 8]: completely neutralise

SMILES: CO[C@@]12CC[C@H](N[C@@H](C)C(=O)O)[C@@H]3Oc4c(O)ccc5c4[C@@]31CCN(C)C2C5 [Compound 7, (2′S)-2′-(4,5α-epoxy-3-hydroxy-14β-methoxy-17-methylmorphinan-6α-ylamino)-propionic acid bis(tetrafluoroborate)]
- ED50 (rats; [4]): 0.75 µg/kg
- analgesic activity (in words) (rats; rat tail flick test): very high analgesic activity
- sc/icv (rats): 133
- ED50 (rats; [5]): 100 µg/kg

SMILES: CO[C@@]12CC[C@@H](N[C@@H](C)C(=O)O)[C@@H]3Oc4c(O)ccc5c4[C@@]31CCN(C)C2C5 [Compound 8, (2′S)-2′-(4,5α-epoxy-3-hydroxy-14β-methoxy-17-methylmorphinan-6β-ylamino)-propionic acid bis(tetrafluoroborate)]
- ED50 (rats; [4]): 0.67 µg/kg
- analgesic activity (in words) (rats; rat tail flick test): very high analgesic activity
- sc/icv (rats): 746
- ED50 (rats; [5]): 500 µg/kg

SMILES: CO[C@@]12CC[C@H](N[C@@H](Cc3ccccc3)C(=O)O)[C@@H]3Oc4c(O)ccc5c4[C@@]31CCN(C)C2C5 [Compound 11, (2′S)-2′-(4,5α-epoxy-3-hydroxy-14β-methoxy-17-methylmorphinan-6α-ylamino)-3′-phenylpropionic acid bis(tetrafluoroborate)]
- pKi (μ-opioid receptors): 9.02

SMILES: CO[C@@]12CC[C@@H](NC(=NC(=O)OC(C)(C)C)NC(=O)OC(C)(C)C)[C@@H]3Oc4c(O)ccc5c4[C@@]31CCN(C)C2C5 [Compound 16]
- Ki (μ-opioid receptors; [3H]DAMGO as radio-ligand, rat's brain homogenisates, read-out: Ki (nM) (μ-receptors)): 0.61 nM

SMILES: CO[C@@]12CC[C@@H](NC(=N)N)[C@@H]3Oc4c(O)ccc5c4[C@@]31CCN(C)[C@@H]2C5 [Compound 17, 4,5α-epoxy-6β-guanidinyl-14β-methoxy-17-methylmorphinan-3-ol dihydrochloride]
- pKi (μ-opioid receptors): 9.60

SMILES: CCOC(=O)CN[C@H]1CC[C@@]2(OC)[C@H]3Cc4ccc(O)c5c4[C@@]2(CCN3C)[C@H]1O5 [Compound 22, (4,5α-epoxy-3-hydroxy-14β-methoxy-17-methylmorphinan-6α-ylamino)-acetic acid-ethylester dihydrochloride]
- pKi (μ-opioid receptors): 9.68

SMILES: CCOC(=O)CN[C@@H]1CC[C@@]2(OC)[C@H]3Cc4ccc(O)c5c4[C@@]2(CCN3C)[C@H]1O5 [Compound 23, (4,5α-epoxy-3-hydroxy-14β-methoxy-17-methylmorphinan-6β-ylamino)-acetic acid-ethylester dihydrochloride]
- pKi (μ-opioid receptors): 9.10

SMILES: O=C(O)CN[C@@H]1CC[C@@]2(OCCCc3ccccc3)[C@H]3Cc4ccc(O)c5c4[C@@]2(CCN3CC2CC2)[C@H]1O5 [Compound 38, {17-cyclopropylmethyl-4,5α-epoxy-3-hydroxy-14β-[(3-phenylpropyl)oxy]-morphinan-6β-ylamino}acetic acid dihydrochloride]
- pKi (μ-opioid receptors): 9.62

SMILES: CN1CC[C@]23c4c5ccc(O)c4O[C@H]2[C@@H](O)C=C[C@H]3[C@H]1C5 [Morphine, morphine, reference compound]
- sc/icv (anaesthetised rats): 34
- ED50 (rats; [4]): 100 µg/kg
- Analgesic effect (in percent) after 10 minutes (rats; icv): 57%
- Analgesic effect (in percent) after 20 minutes (rats; icv): 91%
- Analgesic effect (in percent) after 30 minutes (rats; icv): 74%
- Analgesic effect (in percent) after 60 minutes (rats; icv): 59%
- Analgesic effect (in percent) after 120 minutes (rats; icv): 20%
- sc/icv (rats): 19
- ED50 (rats; [5]): 1900 µg/kg
- ED50 (in vivo): 0.083 mg/kg
- ED50 (in vivo; sc): 2.8 mg/kg
